The text below walks through data of publication PMC9060491, “Biochemical and structural characterization of an aromatic ring–hydroxylating dioxygenase for terephthalic acid catabolism” (Proceedings of the National Academy of Sciences of the …, 2022).

In one series the target is T1, TPADO reductase (TphA1) (Comamonas sp., UniProt Q3C1E0).
T1 construct: gene tphA1I; C-terminal His6, expressed in E. coli; plant-type [2Fe-2S], flavin
The experiment in a line: HPLC of TPADO/reductase reaction. Format: biochemical. Particulars: electron donor in the coupled system with TPADO and TPA; NADPH not used.

The target in series [1] is T2, terephthalate dioxygenase (TPADO; TphA2/TphA3) (Comamonas sp., UniProt Q3C1D5).
T2 construct: gene tphA2II; alpha with C-terminal His6, coexpressed with beta from pET-DUET in E. coli; alpha3beta3 heterohexamer, 196 kDa; Rieske [2Fe-2S] and mononuclear Fe(II); with Terephthalate 1,2-dioxygenase, terminal oxygenase component subunit beta
T2 sequence (Q3C1E2 whole entry, one chain of several, further chain): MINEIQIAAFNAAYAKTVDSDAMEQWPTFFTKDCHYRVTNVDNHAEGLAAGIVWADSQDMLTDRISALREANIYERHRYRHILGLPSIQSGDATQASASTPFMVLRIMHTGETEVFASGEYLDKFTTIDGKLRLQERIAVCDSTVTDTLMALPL
The experiment in a line: HPLC end point, NADH and analog consumption. Format: biochemical. The conditions noted are these: uncoupler, not oxygenated; 90 min in air, limiting NADH, with TphA1 reductase.

Substrate in series [2]: O=C(O)c1ccc(C(=O)O)cc1
The experiment in a line: steady-state kinetics, Michaelis-Menten fit. The conditions noted are these: ambient air (O2 not shown saturating), NADH, with TphA1 reductase. It counts as biochemical, Comamonas sp.

As usually defined, the Km is the substrate concentration at which the rate is half of its maximum. For orientation: kcat means the number of substrate molecules converted per active site and unit of time at saturation.

T1 sequence (Q3C1E0 whole entry): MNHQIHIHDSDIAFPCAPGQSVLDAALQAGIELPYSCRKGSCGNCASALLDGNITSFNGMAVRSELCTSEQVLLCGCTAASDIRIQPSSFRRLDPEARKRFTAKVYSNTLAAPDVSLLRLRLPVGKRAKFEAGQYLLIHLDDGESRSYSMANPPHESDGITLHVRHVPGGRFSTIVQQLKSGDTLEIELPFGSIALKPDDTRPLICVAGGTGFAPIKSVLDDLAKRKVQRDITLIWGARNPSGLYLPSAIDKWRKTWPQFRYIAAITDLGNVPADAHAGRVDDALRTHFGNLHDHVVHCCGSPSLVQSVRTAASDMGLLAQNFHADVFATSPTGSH

Take `NC(=O)C1=CN([C@@H]2O[C@H](COP(=O)(O)OP(=O)(O)OC[C@H]3O[C@@H](n4cnc5c(N)ncnc54)[C@H](O)[C@@H]3O)[C@@H](O)[C@H]2O)C=CC1` [NADH]: the “HPLC of TPADO/reductase reaction” value on TPADO reductase (TphA1) is recorded as “specifically in the presence of nicotinamide adenine dinucleotide hydride (NADH) rather than its phosphorylated analog”.
Turning to `O=C(O)c1ccc([N+](=O)[O-])cc1` [4-NBA, 4-nitrobenzoic acid], the “% NADH consumption” value in series [1] is reported as 100%.

B1: terephthalate dioxygenase (TPADO; TphA2/TphA3) (Comamonas sp.) (protein)
chain: MQESIIQWHGATNTRVPFGIYTDTANADQEQQRIYRGEVWNYLCLESEIPGAGDFRTTFAGETPIVVVRDADQEIYAFENRCAHRGALIALEKSGRTDSFQCVYHAWSYNRQGDLTGVAFEKGVKGQGGMPASFCKEEHGPRKLRVAVFCGLVFGSFSEDVPSIEDYLGPEICERIERVLHKPVEVIGRFTQKLPNNWKLYFENVKDSYHASLLHMFFTTFELNRLSQKGGVIVDESGGHHVSYSMIDRGAKDDSYKDQAIRSDNERYRLKDPSLLEGFEEFEDGVTLQILSVFPGFVLQQIQNSIAVRQLLPKSISSSELNWTYLGYADDSAEQRKVRLKQANLIGPAGFISMEDGAVGGFVQRGIAGAANLDAVIEMGGDHEGSSEGRATETSVRGFWKAYRKHMGQEMQA
notes: alpha with C-terminal His6, coexpressed with beta from pET-DUET in E. coli; alpha3beta3 heterohexamer, 196 kDa; Rieske [2Fe-2S] and mononuclear Fe(II); with Terephthalate 1,2-dioxygenase, terminal oxygenase component subunit beta
Regarding B1, in series [2], the Km was found to be 9.6 ± 1 µM and the kcat was determined as 0.2 ± 0.005 s⁻¹.
